pIC50: −log10 of the molar value. Where two headings read alike, the source gives them in different places.
Tests used:
[1] = Pharmacokinetic evaluation in Dog; type: in vivo; conditions: for AUC(0-inf) / AUC(0-t) / Cmax / half-life / Tmax: in vivo, Dog; for half-life: read-out: T½ (converted)
Method: Aza-T-dCyd was administered orally and intravenously at various concentrations to Mice, Rats and Dogs to determine the PK profile.

Molm13 Xenograft model = assay: Molm13 Xenograft model; type: in vivo; conditions: oral 0.2-1.5 mg/kg
[2] = test system: RRM1 protein, dCTP and dTTP; assay: RRM1 expression and pyrimidine level in cells; type: cell-based
Source text: The reduction of dCTP and dTTP, which act as important precursors for cancer cells to replicate DNA, can cause replication stress and generate a strong DNA damage response.

DNMT3B = DNMT3B (Homo sapiens, UniProt Q9UBC3); assay: DNMT3B expression in HL-60 xenograft tumor samples; type: in vivo, mice; set-up: tumor samples were collected on day 11 to determine the expression of DNMT1, DNMT3A, and DNMT3B; from tissue; host or cells: HL-60 xenograft tumour samples (mouse host); conditions: 2 mg/kg NTX-301 or 0.75 mg/kg Decitabine intraperitoneally, day 11
Method: As the efficacy of DNMT1 inhibitors correlates with their selective profile for targeting DNMT1 and the de novo methyltransferases DNMT3A and DNMT3B, we confirmed the expression of DNMT1, DNMT3A, and DNMT3B in the Aza-T-dCyd and Decitabine treated groups in this xenograft model (FIG. 27).
In the HL-60 xenograft mice model, 2 mg/kg of NTX-301 (Aza-T-dCyd) or 0.75 mg/kg of Decitabine were administered intraperitoneally, and then tumor samples were collected on day 11 to determine the expression of DNMT1, DNMT3A, and DNMT3B. […] On the other hand, the expression levels of DNMT3A and DNMT3B were different in the Aza-T-dCyd and Decitabine treatment groups.

CEBP/epsilon, CDKN1B = assay: CEBP/epsilon and CDKN1B expression in AML cell lines; type: cell-based
Source text: CEBP/epsilon and CDKNIB expression was identified and comparatively analyzed in various AML cell lines to determine the mode of target engagement induced by DNMT1 inhibition upon treatment with Aza-T-dCyd (NTX-301) (FIG. 16).

BT474 = assay: drug activity profiling cytotoxicity; type: cell-based; conditions: Homo sapiens, BT-474; BT474 cell line, Breast; read-out: Aza-T-dCyd IC50
Procedure, shortened: (§1)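 First, 200 cell lines were profiled for sensitivity to Aza-T-dCyd by cytotoxicity; then responses were analysed together with genomic features.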

HT1376 = assay: drug activity profiling cytotoxicity; type: cell-based; conditions: Homo sapiens, HT-1376; HT1376 cell line, Bladder; read-out: Aza-T-dCyd IC50
Procedure, shortened: as §1

PA-1 = assay: drug activity profiling cytotoxicity; type: cell-based; conditions: Homo sapiens; PA-1 cell line, Female GU (Ovary); read-out: Aza-T-dCyd IC50
Procedure, shortened: as §1

FaDu = assay: drug activity profiling cytotoxicity; type: cell-based; conditions: Homo sapiens; FaDu cell line, Head and Neck; read-out: Aza-T-dCyd IC50
Procedure, shortened: as §1

A172 = assay: drug activity profiling cytotoxicity; type: cell-based; conditions: Homo sapiens, A 172; A172 cell line, CNS (Glioma); read-out: Aza-T-dCyd IC50
Procedure, shortened: as §1

[3] = Mouse AUC used for the human PK simulation; conditions: in vivo, mice, dose of 2.0 mg/kg
Method: The 96 mg/day must be divided by 3 or 4, resulting in 24 to 32 mg/day.

DNA methylation = assay: DNA demethylation; type: cell-based
Source text: Through DNA demethylation caused by Aza-T-dCyd treatment, various tumor suppressor genes and genes required for differentiation induction of AML cells were reactivated, and the reactivated expression patterns of these genes were confirmed by RNA-seq data analysis (FIG. 24).

H2AX, Chk1, p53 = assay: DNA damage response markers; type: cell-based
leukemia cell lines = assay: Growth-inhibitory activity on leukemia cell lines (GI50); type: cell-based; conditions: leukemia cell lines, 72 hours, range over cell lines; read-out: GI50 values (half maximal growth inhibitory concentrations)
Method: The growth-inhibitory activity of Aza-T-dCyd, a DNMT1 inhibitor, was measured in leukemia cell lines to determine its inhibitory effect on cell proliferation.
The growth-inhibitory activity of DNMT1 inhibitors, Aza-T-dCyd and Decitabine, was measured on leukemia cell lines to determine their effect on cell proliferation.

GLP dog toxicology study = type: in vivo; conditions: dog, 0.15, 0.5 and 1.0 mg/kg per day
Method: GLP-Tox studies have been conducted in rats and dogs, with 2 cycles of QD×5d at PO.
In a GLP dog toxicology study, Aza-T-dCyd was administered at 0.15, 0.5, and 1.0 mg/kg (3, 10, and 20 mg/m^2) per day. […] The maximum tolerated dose (MTD) was between 0.5 and 1 mg/kg (10~20 mg/m^2) per day, the highest non-toxic dose (HNSTD) was 0.5 mg/kg (10 mg/m^2) per day, and the no observed adverse effect level (NOAEL) was <0.15 mg/kg (3) mg/m^2) per day.

Q: Which results are given for Nc1ncn([C@H]2CC(O)[C@@H](CO)S2)c(=O)n1 (some centres unmarked) [Aza-T-dCyd, 4′-thio-5-aza-2′-deoxycytidine]?
A: oral bioavailability ([1]; dogs): orally bioavailable; AUC(0-inf) ([1]; IV 0.33 mg/kg): 1130 ng·h/mL; AUC(0-t) ([1]; IV 0.33 mg/kg): 1050 ng·h/mL; Cmax ([1]; IV 0.33 mg/kg): 552 ng/mL; half-life ([1]; IV 0.33 mg/kg): 2.25 h; AUC(0-inf) ([1]; PO 0.15 mg/kg): 439 ng·h/mL; AUC(0-t) ([1]; PO 0.15 mg/kg): 409 ng·h/mL; Cmax ([1]; PO 0.15 mg/kg): 104 ng/mL; Tmax ([1]; PO 0.15 mg/kg): 1 h; half-life ([1]; PO 0.15 mg/kg): 1.86 h; AUC(0-inf) ([1]; PO 0.33 mg/kg): 880 ng·h/mL; AUC(0-t) ([1]; PO 0.33 mg/kg): 790 ng·h/mL; Cmax ([1]; PO 0.33 mg/kg): 210 ng/mL; Tmax ([1]; PO 0.33 mg/kg): 0.67 h; half-life ([1]; PO 0.33 mg/kg): 2.34 h; AUC(0-inf) ([1]; PO 0.67 mg/kg): 1760 ng·h/mL; AUC(0-t) ([1]; PO 0.67 mg/kg): 1570 ng·h/mL; Cmax ([1]; PO 0.67 mg/kg): 463 ng/mL; Tmax ([1]; PO 0.67 mg/kg): 0.83 h; half-life ([1]; PO 0.67 mg/kg): 2.26 h; AUC(0-inf) ([1]; PO 1.5 mg/kg): 3370 ng·h/mL; AUC(0-t) ([1]; PO 1.5 mg/kg): 3200 ng·h/mL; Cmax ([1]; PO 1.5 mg/kg): 882 ng/mL; Tmax ([1]; PO 1.5 mg/kg): 0.67 h; half-life ([1]; PO 1.5 mg/kg): 1.68 h; AUC(0-inf) ([1]; PO 3.0 mg/kg): 5620 ng·h/mL; AUC(0-t) ([1]; PO 3.0 mg/kg): 5380 ng·h/mL; Cmax ([1]; PO 3.0 mg/kg): 1670 ng/mL; Tmax ([1]; PO 3.0 mg/kg): 0.417 h; half-life ([1]; PO 3.0 mg/kg): 1.65 h; anti-cancer effect (Molm13 Xenograft model): potent anti-cancer effect in a dose-dependent manner; toxicity signals (body weight changes) (Molm13 Xenograft model): without any toxicity signals; RRM1 protein expression [2]: inhibited the expression of RRM1 protein; amount of dCTP and dTTP in the cells [2]: decreased the amount of dCTP and dTTP; DNMT3B expression level in tumor samples (DNMT3B): significantly reduced; CEBP/epsilon and CDKN1B intracellular protein expression (CEBP/epsilon, CDKN1B; MV4-11, HL-60 and KG-1a cells, 72 hours): expression of CEBP/epsilon and CDKN1B was increased; CEBP/epsilon and CDKN1B expression (CEBP/epsilon, CDKN1B; THP-1 cells, different concentrations): increased CEBP/epsilon expression and CDKN1B expression; pIC50 (BT474): < 5.00; pIC50 (HT1376): 5.48; pIC50 (PA-1): 7.41; pIC50 (FaDu): 6.68; pIC50 (A172): < 5.00; AUC [3]: 369 ng·h/mL; overall DNA methylation levels (DNA methylation): decrease in overall DNA methylation levels; pattern of DNA demethylation (DNA methylation): biased and selective demethylation; H2AX phosphorylation (H2AX, Chk1, p53): increased H2AX phosphorylation; expression of p53 protein (H2AX, Chk1, p53): increased expression of p53 protein; phosphorylation of Chk1 (H2AX, Chk1, p53): increased phosphorylation of Chk1; GI50 (leukemia cell lines): 14 to 690 nM; target organs (GLP dog toxicology study): bone marrow, thymus, gastrointestinal tract, tonsils, and testes

Reference: patent publication US12708630B2, “Combined therapy of 4′-thio-5-aza-2′-deoxycytidine and Venetoclax” (PINOTBIO, INC., priority 2021, dated 2026)
